As usually defined, the Kd is the free concentration of one partner at which half of the binding sites on the other are occupied at equilibrium, for simple one-to-one binding.

From patent US20220315631A1, “STAPLED BETA-CATENIN LIGANDS” (Ohio State Innovation Foundation, priority 2019, published 2022) come the findings set out here.

This assay has as its target T1, β-catenin (Homo sapiens, UniProt P35222).
T1 construct: cells harboring plasmid pGEX-β-catenin(133-665)52 were grown in LB medium; made in house; host or cells: E. coli BL21 (DE3)
T1 sequence (P35222 133-665): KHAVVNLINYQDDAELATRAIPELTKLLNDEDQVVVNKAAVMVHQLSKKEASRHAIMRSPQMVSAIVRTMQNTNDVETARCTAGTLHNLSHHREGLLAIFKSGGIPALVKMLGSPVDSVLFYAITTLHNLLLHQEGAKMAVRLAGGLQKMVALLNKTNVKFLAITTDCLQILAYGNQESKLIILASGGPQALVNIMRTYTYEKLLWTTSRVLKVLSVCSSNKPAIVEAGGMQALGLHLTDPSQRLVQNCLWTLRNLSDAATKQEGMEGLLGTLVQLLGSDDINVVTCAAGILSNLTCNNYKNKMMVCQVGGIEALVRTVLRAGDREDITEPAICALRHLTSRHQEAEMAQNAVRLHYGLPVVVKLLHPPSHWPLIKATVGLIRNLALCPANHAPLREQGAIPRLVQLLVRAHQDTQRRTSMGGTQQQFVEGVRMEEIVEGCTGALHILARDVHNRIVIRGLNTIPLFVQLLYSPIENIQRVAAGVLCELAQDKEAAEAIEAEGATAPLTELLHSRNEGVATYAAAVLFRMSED
Put plainly: FP direct binding of FAM-labeled peptide 1 to GST-β-catenin. The following applies: 10 nM peptide 1 with serial dilutions of GST-β-catenin, read-out: KD or IC50. How it is done: Protein-Ligand Binding Assays. Peptide 1: Binding affinity was determined using FP. Peptide 1 (10 nM) was added to serial dilutions of GST-β-catenin in 20 mM Tris, 300 mM NaCl, pH 8.8, 0.01% Triton-X100 as reported previously. 34 After 1 h, aliquots were transferred from the reaction mixtures into black-on-black 384-well non-binding plates (Greiner) and FP was measured using a Tecan Infinite M1000 Pro plate reader. The KD value was calculated using KaleidaGraph v. 3.6 using the equation below.
Protein Purification. For β-catenin, E. coli BL21 (DE3) cells harboring plasmid pGEX-β-catenin(133-665)52 were grown in LB medium supplemented with 50 mg/L ampicillin at 37° C. to an OD600 of 0.6 before induction with 0.2 mM IPTG overnight at 30° C. Cells were harvested by centrifugation and lysed in lysis buffer (20 mM Tris, pH 8.0, 150 mM NaCl, 2 mM DTT, 1% Triton-X100, 200 mM EDTA, 10 mg/mL PMSF, and 0.2 mg/mL lysozyme) on ice for 20 min, followed by sonication (8 s off, 2 s on, 1 min total, performed twice at 70% amplitude). The homogenate was centrifuged (13,000 g for 30 min at 4° C. and the clear supernatant was loaded onto an equilibrated glutathione-agarose column. After exhaustive washing with wash buffer (20 mM Tris, pH 7.4, 150 mM NaCl, 2 mM DTT), the bound GST-β-catenin was eluted with wash buffer supplemented with 10 mM glutathione, concentrated, and stored at −80° C. in 30% glycerol.

Starred links: 1 amine or outer side, 2 acyl side, 3 side chain; linkers in the order of their positions; H or OH if unused. Positions of bridges follow the written chain, without caps; N, C: chain ends. Residues, ends and D or L forms follow the SMILES beside them. *: point of attachment. 5FAM = O=C1OC2(c3ccc(O)cc3Oc3cc(O)ccc32)c2ccc(C(=O)*)cc21; mXylylene = c1cc(C[*:1])cc(C[*:2])c1

With `CC[C@H](C)[C@@H]1NC(=O)[C@@H](NC(=O)[C@H](CCC(=O)O)NC(=O)[C@@H]2CCCN2C(=O)[C@H](Cc2ccc(O)cc2)NC(=O)CNC(=O)CNC(=O)c2ccc3c(c2)C(=O)OC32c3ccc(O)cc3Oc3cc(O)ccc32)CSCc2cccc(c2)CSC[C@@H](C(=O)N[C@@H](Cc2c[nH]cn2)C(=O)N[C@@H](CC(C)C)C(=O)N[C@@H](CCC(N)=O)C(=O)N[C@@H](CCCNC(=N)N)C(=O)N[C@H](C(=O)N[C@H](C(=O)N[C@@H](CC(C)C)C(N)=O)[C@@H](C)CC)C(C)C)NC(=O)[C@H](CC(=O)O)NC(=O)[C@H](CC(C)C)NC1=O` [peptide 1] (5FAM-GGYPECILDCHLQRVIL-NH2; linker 6-10 via mXylylene), the dissociation constant (Kd) is 18 nM.
